Measured values as given in BindingDB's records for doi:10.1016/j.bmc.2021.116215 (Research Triangle Institute, 2021).

Target: Cannabinoid receptor 1 (Homo sapiens, UniProt P21554)
Assay: Allosteric antagonist activity at human CB1 receptor expressed in CHO-RD-HGA16 cells overexpressing Galpha16 assessed as inhibition of CP55940-stimulated calcium mobilization preincubated for 15 mins followed by agonist addition and measured every 1 sec for 90 secs by Calcium-3 dye based FLIPR assay

Cannabinoid receptor 1, sequence (P21554 whole entry): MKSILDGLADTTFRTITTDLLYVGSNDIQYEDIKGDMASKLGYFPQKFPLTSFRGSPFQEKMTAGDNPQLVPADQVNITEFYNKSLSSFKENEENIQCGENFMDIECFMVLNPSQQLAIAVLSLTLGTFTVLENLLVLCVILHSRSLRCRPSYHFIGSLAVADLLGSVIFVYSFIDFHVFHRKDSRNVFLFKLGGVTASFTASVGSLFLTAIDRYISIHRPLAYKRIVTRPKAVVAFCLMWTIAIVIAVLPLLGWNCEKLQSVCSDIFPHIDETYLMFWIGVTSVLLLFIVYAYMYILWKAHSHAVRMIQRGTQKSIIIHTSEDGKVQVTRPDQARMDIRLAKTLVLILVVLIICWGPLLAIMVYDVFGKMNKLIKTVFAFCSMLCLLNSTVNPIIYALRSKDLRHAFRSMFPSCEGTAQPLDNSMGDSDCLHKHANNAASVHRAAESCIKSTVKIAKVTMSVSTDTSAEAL

IC50: 2510 nM
SMILES: O=C(NC[C@H]1C[C@@H]1c1ccccc1)Nc1ccc(Cl)cc1
